{"source": "patent US7208628B2", "about": "“Compositions and methods for the treatment of hepatitis C virus infection” (Kansas State University Research Foundation, priority 2002, dated 2007)", "target": "binding of HCV-E2 to CD81 on Molt4 T cells (Hepacivirus hominis (Hepatitis C virus), UniProt P27958)", "sequence (P27958 384-715)": "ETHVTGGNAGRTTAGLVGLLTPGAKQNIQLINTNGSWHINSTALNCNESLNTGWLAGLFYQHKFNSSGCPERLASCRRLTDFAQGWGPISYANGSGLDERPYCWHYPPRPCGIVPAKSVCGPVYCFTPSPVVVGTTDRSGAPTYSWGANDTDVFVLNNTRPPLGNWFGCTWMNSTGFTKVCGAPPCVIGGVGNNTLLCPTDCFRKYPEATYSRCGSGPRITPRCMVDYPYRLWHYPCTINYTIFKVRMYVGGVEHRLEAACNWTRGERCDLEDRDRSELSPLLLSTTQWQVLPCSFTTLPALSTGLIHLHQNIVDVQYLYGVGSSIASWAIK", "sequence (P60033 whole entry, further chain)": "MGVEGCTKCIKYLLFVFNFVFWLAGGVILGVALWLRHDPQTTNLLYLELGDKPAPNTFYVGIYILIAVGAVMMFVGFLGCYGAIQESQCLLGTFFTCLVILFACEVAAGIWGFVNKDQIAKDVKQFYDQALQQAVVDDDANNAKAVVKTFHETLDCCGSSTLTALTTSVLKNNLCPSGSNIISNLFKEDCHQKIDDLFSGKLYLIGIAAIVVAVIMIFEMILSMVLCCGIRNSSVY", "test": "HCV-E2/CD81 binding assay on Molt4 T cells, detection with anti-E2 mAb 6F6 and flow cytometry", "set-up": "species or system human", "details": "for ability to inhibit the HCV-E2 binding to CD81, relative activity in words: structure-activity comparison of linker, side chain and ester against the valine benzyl ester I45DC AL-2-140", "description": "Development of a Unique HCV-E2/CD81 Binding Assay. […] The binding of HCV-E2 to CD81 has been reported by several groups (see, e.g. Allander, T., et al., “Hepatitis C virus envelope protein E2 binds to CD81 of tamarins” Virology 277:358–367, 2000). Often those studies involved interactions of purified recombinant proteins. We sought to confirm published findings and to test the ability of HCV-E2 to bind to CD81 expressed on living T cells. Various concentrations of recombinant HCV-E2 (Ala 384 to Lys 715 of the HCV polyprotein produced in CHO cells; Austral Biologicals) was incubated with Molt4 T cells and binding of HCV-E2 to the cells was detected with the anti-E2 monoclonal antibody 6F6 (Austral Biologicals) followed by flow cytometry (FIG. 1). HCV-E2 binding to Molt4 T cells is concentration dependent and easily detectable at concentrations as low as 0.3 μg/mL. This binding assay differs from the assay published by Wünschmann in that the published assay used whole virus and not recombinant […] peptide. (Wünschmann, et al, “Characterization of Hepatitis C Virus (HCV) and HCV E2 Interactions with CD81 and the Low-Density Lipoprotein Receptor” J. Virology 74:10055–10062, 2000).\nEffect of I45DCs on HCV-E2 binding to CD81 on T cells. […] Binding was measured by using the novel and sensitive method of the present invention for the detection of binding between the HCV envelope protein E2 and its cellular receptor CD81 on living human T cells. This experimental approach was employed in the evaluation of a series of newly synthesized I45DCs.\nHCV-E2 was pre-incubated with or without […] of the indicated compound for 30 minutes at 37° C. prior to addition of HCV-E2 to Molt4 cells and detection as described above. […] The approximate EC50 of 19 was determined by conducting the same type of experiment in the presence of a 1:2 titration of 19 from […] (FIG. 5).", "data": [{"smiles": "CCN(CCN(CC)C(=O)c1nc[nH]c1C(=O)N[C@H](C(=O)OCc1ccccc1)C(C)C)C(=O)c1nc[nH]c1C(=O)N[C@H](C(=O)OCc1ccccc1)C(C)C", "note": "[Compound 19]", "values": [{"measurement": "IC50", "setting": "CD81 expressed on human T cells, 1:2 titration of compound, FIG. 5, read-out: approximate IC50 value for blocking binding of HCV-E2 to CD81", "value": "~45", "unit": "µM"}, {"measurement": "bioactivity in the HCV-E2 binding assay", "setting": "HCV-E2 pre-incubated with 500 mM compound for 30 minutes at 37° C. before addition to Molt4 cells", "value": "bioactivity in the sub-millimolar range"}, {"measurement": "ability to inhibit the HCV-E2 binding to CD81, relative activity in words", "value": "most active compound to date"}, {"measurement": "ability to inhibit the HCV-E2 binding to CD81, relative activity in words", "setting": "listed as AL-2-140", "value": "most active"}]}]}
